Where only a bound is given, the exact number is not on record here.

Usually IC50 stands for the concentration that gives 50% inhibition.

Common to all, as to type: biochemical
One assay deals with TYK2 (Homo sapiens (Human), UniProt P29597). The assay can be described thus: JAK Caliper Enzyme Assay at 1 mM ATP, TYK2. In a few lines:
(§1)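 Inhibition is measured as reduced phosphorylation of a synthetic peptide by the recombinant human kinase domain at 1 mM ATP. Conditions give 20–30% conversion at room temperature before EDTA quench, and on-chip separation of labelled substrate and product yields percent conversion for dose–response plotting.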

Another assay deals with JAK3 (Homo sapiens (Human), UniProt P52333). Put plainly: JAK Caliper Enzyme Assay at 1 mM ATP, JAK3. The gist of the method: (§2)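 Recombinant human kinase domains phosphorylate a fluorescent synthetic peptide at 1 mM ATP, room temperature, with enzyme and time tuned for 20-30% conversion; EDTA-stopped. Product/substrate separated by microfluidic mobility shift; percent effect versus DMSO and positive controls fitted to IC50 (nM).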

The target in another assay is JAK2 (Homo sapiens (Human), UniProt O60674). The assay can be described thus: JAK Caliper Enzyme Assay at 1 mM ATP, JAK2. The gist of the method:
as §1

A further assay has as its target JAK1 (Homo sapiens (Human), UniProt P23458). The assay can be described thus: JAK Caliper Enzyme Assay at 1 mM ATP, JAK1. In a few lines:
as §2

TYK2, sequence (P29597 897-1176): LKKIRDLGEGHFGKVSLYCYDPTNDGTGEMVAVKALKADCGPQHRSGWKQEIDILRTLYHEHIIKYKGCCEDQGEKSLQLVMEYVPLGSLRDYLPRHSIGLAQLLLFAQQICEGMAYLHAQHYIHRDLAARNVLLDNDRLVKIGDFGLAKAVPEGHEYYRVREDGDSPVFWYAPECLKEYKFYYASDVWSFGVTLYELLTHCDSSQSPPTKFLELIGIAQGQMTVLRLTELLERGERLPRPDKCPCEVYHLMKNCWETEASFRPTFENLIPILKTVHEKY
JAK2, sequence (O60674 849-1124): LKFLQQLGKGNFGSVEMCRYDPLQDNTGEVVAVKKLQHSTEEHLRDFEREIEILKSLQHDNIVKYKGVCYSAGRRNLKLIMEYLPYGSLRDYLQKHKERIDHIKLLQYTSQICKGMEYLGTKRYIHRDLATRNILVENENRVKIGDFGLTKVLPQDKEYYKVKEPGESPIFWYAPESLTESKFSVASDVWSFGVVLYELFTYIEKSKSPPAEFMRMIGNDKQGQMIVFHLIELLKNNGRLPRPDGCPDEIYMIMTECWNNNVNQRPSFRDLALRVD
JAK3, sequence (P52333 822-1111): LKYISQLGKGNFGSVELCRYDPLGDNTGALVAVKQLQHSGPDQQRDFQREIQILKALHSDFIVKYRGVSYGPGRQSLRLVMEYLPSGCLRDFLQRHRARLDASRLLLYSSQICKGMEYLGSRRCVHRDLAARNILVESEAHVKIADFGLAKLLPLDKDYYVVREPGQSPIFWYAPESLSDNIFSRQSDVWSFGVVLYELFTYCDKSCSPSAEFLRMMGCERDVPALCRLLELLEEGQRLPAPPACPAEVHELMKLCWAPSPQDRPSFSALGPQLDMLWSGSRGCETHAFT
JAK1, sequence (P23458 875-1153): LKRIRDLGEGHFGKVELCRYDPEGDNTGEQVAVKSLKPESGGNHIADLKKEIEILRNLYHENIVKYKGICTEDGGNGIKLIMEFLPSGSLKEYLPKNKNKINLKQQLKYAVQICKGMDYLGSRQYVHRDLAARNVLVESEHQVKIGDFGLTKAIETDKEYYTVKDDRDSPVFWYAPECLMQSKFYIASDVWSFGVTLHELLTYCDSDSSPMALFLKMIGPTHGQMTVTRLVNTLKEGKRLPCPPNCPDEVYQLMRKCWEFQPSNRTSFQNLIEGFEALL

Consider `CS(=O)(=O)N1CC(CC#N)(n2ccc(-c3nc(-c4ccc(F)cc4O)cc4ncccc34)n2)C1` [Example 259, [3-{3-[7-(4-fluoro-2-hydroxyphenyl)-1,6-naphthyridin-5-yl]-1H-pyrazol-1-yl}-1-(methylsulfonyl)azetidin-3-yl]acetonitrile], for which the IC50 on TYK2 was 0.019 µM; at JAK3, above 10 µM; on JAK2, 0.566 µM; at JAK1, above 10 µM.
In the case of `CS(=O)(=O)N1CC(CC#N)(n2ccc(-c3nc(-c4ccc(O)c(F)c4)cc4ncccc34)n2)C1` [Example 260, [3-{3-[7-(3-fluoro-4-hydroxyphenyl)-1,6-naphthyridin-5-yl]-1H-pyrazol-1-yl}-1-(methylsulfonyl)azetidin-3-yl]acetonitrile], the IC50 at TYK2 was 0.027 µM; on JAK3, above 10 µM; at JAK2, 0.325 µM; on JAK1, 0.198 µM.
In the same order, the values of `CS(=O)(=O)N1CC(CC#N)(n2ccc(-c3nc(-c4cc(O)cc(F)c4)cc4ncccc34)n2)C1` [Example 261, [3-{3-[7-(3-fluoro-5-hydroxyphenyl)-1,6-naphthyridin-5-yl]-1H-pyrazol-1-yl}-1-(methylsulfonyl)azetidin-3-yl]acetonitrile] are 0.118 µM, above 10 µM, above 10 µM and above 10 µM.
In the same order, the values of `CS(=O)(=O)N1CC(CC#N)(n2ccc(-c3nc(-c4cc(F)ccc4O)cc4ncccc34)n2)C1` [Example 262, [3-{3-[7-(5-fluoro-2-hydroxyphenyl)-1,6-naphthyridin-5-yl]-1H-pyrazol-1-yl}-1-(methylsulfonyl)azetidin-3-yl]acetonitrile] are 0.242 µM, above 10 µM, above 10 µM and above 10 µM.
`CCN1CC(CC#N)(n2ccc(-c3nc(C4=CCOCC4)cc4ncccc34)n2)C1` [Example 263, (3-{3-[7-(3,6-dihydro-2H-pyran-4-yl)-1,6-naphthyridin-5-yl]-1H-pyrazol-1-yl}-1-ethylazetidin-3-yl)acetonitrile]: the IC50 was 1.39 µM at TYK2, above 10 µM at JAK3, 9.57 µM on JAK2 and above 10 µM at JAK1.
As for `CCN1CC(CC#N)(n2ccc(-c3nc(N4CCOCC4)cc4ncccc34)n2)C1` [Example 264, (1-ethyl-3-{3-[7-(morpholin-4-yl)-1,6-naphthyridin-5-yl]-1H-pyrazol-1-yl}azetidin-3-yl)acetonitrile], the IC50 on TYK2 was 6.99 µM; on JAK3, above 10 µM; at JAK2, above 10 µM; on JAK1, above 10 µM.
For `CCN1CC(CC#N)(n2ccc(-c3nc(N4CCCC4)cc4ncccc34)n2)C1` [Example 265, (1-ethyl-3-{3-[7-(pyrrolidin-1-yl)-1,6-naphthyridin-5-yl]-1H-pyrazol-1-yl}azetidin-3-yl)acetonitrile], the IC50 on TYK2 is 4.82 µM; on JAK3 it was above 10 µM; at JAK2, above 10 µM; at JAK1, above 10 µM.
On to `N#CCC1(n2ccc(-c3nc(Oc4cccc(N)n4)cc4ncccc34)n2)CC(C#N)C1` (stereo not drawn) [Example 266, trans-3-(3-{7-[(6-aminopyridin-2-yl)oxy]-1,6-naphthyridin-5-yl}-1H-pyrazol-1-yl)-3-(cyanomethyl)cyclobutanecarbonitrile], for which the IC50 was 1.91 µM on TYK2, above 10 µM at JAK3, 3.32 µM on JAK2 and above 10 µM at JAK1.
As to `Cc1cc(-c2nc(-c3ccn[nH]3)cc3ncccc23)nn1C1(CC#N)CN(S(C)(=O)=O)C1` [Example 267, [3-{5-methyl-3-[7-(1H-pyrazol-5-yl)-1,6-naphthyridin-5-yl]-1H-pyrazol-1-yl}-1-(methylsulfonyl)azetidin-3-yl]acetonitrile], the concentration for half-maximal inhibition (IC50) on TYK2 was 0.057 µM; at JAK3, above 10 µM; at JAK2 it was 0.843 µM; at JAK1 it was 2.95 µM.

The record behind these values is patent US11254668B2, “Pyrazolo[1,5-A]pyrazin-4-yl and related derivatives” (Pfizer Inc., priority 2017, dated 2022).
